Measured values from patent publication US20140066469A1, “TREATMENT OF DISEASES ASSOCIATED WITH INFLAMMATION” (Department of Veterans Affairs, priority 2012, published 2014).
Like-named read-outs stand apart in the source and are kept apart here.

Columns and labels:
[1] = oral; cited from earlier work
[2] = Patient case example, LDL cholesterol (Example 14); format: in vivo, humans; conditions: person, baseline 140 mg/dL, over several months
[3] = system: retinal ganglion cell layer (GCL)
Description: After 3 months, mice were sacrificed, and their eyes were carefully isolated by microdissection. The eyes were fixed in formalin and sectioned to allow visualization of the retina.

[4] = system: inflammatory cytokines in OA synovium; assay: Multiplex cytokine analysis of synovium from DMM joints; format: in vivo, C57BL6 (B6) mice; conditions: HCQ sulfate 100 mg/kg/day or atorvastatin calcium 40 mg/kg/day, 3 months; vs vehicle
Procedure: FIG. 14. […] 3 months after surgery, the mice were sacrificed and the synovium of the operated joint isolated. The collected synovial membrane tissues were used to generate protein lysates, on which multiplex cytokine analysis was performed using the Luminex System and the Bio-Rad BioPlex 23plex mouse cytokine detection kit. Each sample was run in triplicate. […] (A) Heatmap presenting the relative levels (as compared to mean levels in the vehicle-control treated group). (B) Bar-graph display of mean cytokine levels for the indicated treatment groups.
After 3 months, mice were sacrificed, their joints harvested, and synovial tissue isolated from the joint by microdissection. The synovial tissues were homogenized and centrifuged, and the resulting supernatants were assayed for levels of inflammatory cytokines by using a multiplex bead-based cytokine assay (BioRad Laboratories, Hercules, Calif.).

[5] = currently FDA-approved doses; cited from earlier work
retina = conditions: cited from earlier work; for ophthalmoscopically visualized loss of retinal pigmented epithelium (eye toxicity): treated humans after 5 years
non-erosive OA = conditions: general non-erosive human OA; cited from earlier work
[6] = cited from earlier work
[7] = system: osteoarthritis (OA) induced by destabilization of the medial meniscus (DMM); assay: DMM mouse model of OA, histological scoring of stifle joints; format: in vivo, C57BL6 (B6) mice; conditions: Example 1; HCQ sulfate 100 mg/kg/day and/or atorvastatin calcium 40 mg/kg/day, oral gavage, 12 weeks; t test
Procedure: Experiments were performed under protocols approved by the Stanford University Committee of Animal Research and in accordance with NIH guidelines.

[8] = coadministered with HCQ vs methotrexate alone

CC(C)c1c(C(=O)Nc2ccccc2)c(-c2ccccc2)c(-c2ccc(F)cc2)n1CC[C@@H](O)C[C@@H](O)CC(=O)O [Atorvastatin, atorvastatin]
systemic availability for HMG-CoA reductase activity [1]: approximately 30% | LDL cholesterol [2]: 115 mg/day | number of nuclei in the GCL (viable retinal ganglion cells) ([3]; 3 months, vs vehicle, two-tailed t test): did not differ | disarrangement of the GCL ([3]; HCQ sulfate 100 mg/kg/day and/or atorvastatin calcium 40 mg/kg/day, 3 months): no disarrangement | levels of inflammatory cytokines in OA synovium [4]: lower

CCN(CCO)CCCC(C)Nc1ccnc2cc(Cl)ccc12 (centres unmarked) [HCQ, hydroxychloroquine]
Oral Bioavailability [5]: 89% | T1/2 [5]: 41 days | Tmax [5]: 0.083 to 0.12 days | Vd [5]: 605 L | number of nuclei in the GCL (viable retinal ganglion cells) ([3]; mouse, in vivo): significantly lower | retinal toxicity (retina; after 5-7 years of use): ~1% | prevalence of retinal toxicity (retina; conventional doses of HCQ (400 mg/day common)): 6.8 users per 1,000 | clinically apparent eye toxicity (retina; patients): less than 1% | ophthalmoscopically visualized loss of retinal pigmented epithelium (eye toxicity) (retina): 1% | physician discontinuation for earlier eye problems (retina; treated patients over 5 years): ~7% | disease-modifying or pain-reducing activity (non-erosive OA): failed to demonstrate | levels of inflammatory cytokines in OA synovium [4]: lower | AUC of HCQ ([6]; between dosing occasions): no significant difference | Osteophyte score (osteophyte formation) [7]: not as potent | Synovitis score [7]: not as potent

CN(Cc1cnc2nc(N)nc(N)c2n1)c1ccc(C(=O)N[C@@H](CCC(=O)O)C(=O)O)cc1 [methotrexate]
maximum methotrexate concentration (Cmax) [6, 8]: decreased | mean area under the concentration-time curve (AUC) for methotrexate [6, 8]: increased

CCN(CC)CCCC(C)Nc1ccnc2cc(Cl)ccc12 (centres unmarked) [chloroquine]
ophthalmoscopically visualized loss of retinal pigmented epithelium (eye toxicity) (retina): considerably higher
